{"source": "patent EP0585371B1", "about": "“AROMATIC OLIGOMERIC COMPOUNDS USEFUL AS MIMICS OF BIOACTIVE MACROMOLECULES” (RHONE-POULENC RORER INTERNATIONAL (HOLDINGS) INC., priority 1991, dated 1992)", "key": {"[1]": {"test_system": "human fixed thrombin activated platelets", "assay": "Platelet aggregation inhibition (fibrinogen-induced)", "type": "cell-based", "details": "human fibrinogen added", "description": "The method for measuring platelet aggregation inhibition is essentially that of Ruggeri, et al., Proc. Natl. Acad. Sci. USA, 83, 5708-5712 (1986), using formalin-fixed platelets as prepared by Plow, et al., Proc. Natl. Acad. Sci. USA, 79, 3711-3715 (1982). A given amount of the compound of the present invention or other compound to be tested (10 to 100 µl of a 1 mg/ml solution) is incubated at 37°C with 400 µl of human fixed thrombin activated platelets for 2 minutes. 12.5 µl of human fibrinogen solution is added and aggregation is monitored using a platelet aggregation profiler (Model PAP-4). Controls consist of fibrinogen added to incubated platelets and the resulting aggregation is considered as 100%. Percent inhibition in the presence of a given concentration of test compound versus concentration of the compound is plotted and the concentration required to give 50% inhibition (IC50) is determined."}, "normal pooled plasma": {"test_system": "normal pooled plasma", "assay": "Anticoagulation activity, Activated Partial Thromboplastin Time (APTT) test", "details": "concentration required to double clotting time", "description": "The following test measures anticoagulant activity of the oligomers of the present invention and utilizes the Activated Partial Thromboplastin Time (APTT) test, with the following procedures.\nTo an assay cuvette is added 100 µl of normal pooled plasma (George King Biomedical Inc., Kansas) and […] of a solution containing the test compound in aqueous 50 mM Tris hydrochloride at pH 7.5 (0.2 mg of sample in one ml buffer). The sample is placed in a MLA coagulation timer which automatically maintains the sample at 37°C for 2.5 minutes, 100 µl of actin activated cephaloplastin reagent is injected, kept 5 minutes, 100 µl of 35 mM CaCI is injected, and clot formation is determined photometrically and the clotting time recorded. Each example is examined at a variety of concentrations, generally from about .025 mg/ml to about 1 mg/ml, and the clotting times are graphed as a function of concentration. From the graphic results, the concentration required to double clotting time (ICDCT) is calculated by linear interpolation."}, "[2]": {"molecular_target": "T1, ESb mouse lymphoma heparanase (Mus musculus, UniProt Q6YGZ1)", "T1 construct": "endogenous in cells; host or cells: ESb mouse lymphoma cells", "T1 sequence (Q6YGZ1 28-535)": "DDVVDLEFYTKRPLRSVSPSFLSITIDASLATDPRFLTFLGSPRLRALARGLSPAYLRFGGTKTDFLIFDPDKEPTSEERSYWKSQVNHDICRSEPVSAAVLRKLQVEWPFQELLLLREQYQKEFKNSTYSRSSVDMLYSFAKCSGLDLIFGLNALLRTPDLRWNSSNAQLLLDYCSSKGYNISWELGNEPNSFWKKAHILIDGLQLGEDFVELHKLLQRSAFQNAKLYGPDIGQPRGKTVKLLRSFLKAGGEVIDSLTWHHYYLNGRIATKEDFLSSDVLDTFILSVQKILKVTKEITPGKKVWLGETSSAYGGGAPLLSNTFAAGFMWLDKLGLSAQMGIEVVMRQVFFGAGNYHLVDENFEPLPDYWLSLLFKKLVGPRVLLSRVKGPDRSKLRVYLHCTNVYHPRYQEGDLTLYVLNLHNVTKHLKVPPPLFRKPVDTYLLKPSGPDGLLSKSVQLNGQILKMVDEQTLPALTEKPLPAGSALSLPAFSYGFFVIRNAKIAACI", "assay": "Inhibition of heparanase activity (degradation of labeled ECM heparan sulfate)", "type": "biochemical", "details": "24 hours incubation with labeled ECM", "description": "Heparanase is an endoglucuronidase capable of degrading […] (HS) at specific intrachain sites.\nThe ability of compounds of the present invention to inhibit lymphomacell derived heparanase is tested in the assay system described by Vlodavsky et al., Cancer Research 43, 2704-2711 (1983). […] labeled ECM is incubated for 24 hours with ESb mouse lymphoma heparanase in the presence of various concentrations of the oligomers tested. Degradation of the HS is followed by gel filtration of the supematants. Heparanase activity is expressed as the total amount of labeled low-molecular-weight fragments released from the EMC substrate."}, "[3]": {"test_system": "Vascular smooth muscle cells (VSMC)", "assay": "Smooth Muscle Cell DNA Synthesis Assay (3H-thymidine incorporation in response to PDGF)", "type": "cell-based, swine", "details": "inhibition of incorporation of 3H-thymidine in response to PDGF (9 ng/ml)", "description": "Vascular smooth muscle cells (VSMC) are isolated from swine coronaries obtained from swine hearts (Hatfield Meat Packing, Hatfield, PA) by enzyme dissociation as described by Gunther, et al., in J. Cell. Biol. 92, 289 (1982). Hyaluronidase (0.5 mg/ml) is added to facilitate dispersal. Cells are maintained in Earle's modified minimal essential medium (EMEM) with D-valine substituted for L-valine, supplemented with Hepes (10 mM), fetal bovine serum (FBS) (10%), penicillin (100 U/ml) and streptomycin ( 100 µg/ml).\nThe VSMC (passage 2) are plated at a density of 3 x 10^4 /cm2 (1x10^4 cells/well of 96 well tray) and after 48 hours of normal growth are arrested by replacement of above media with serum-free media for 48 hours consisting of: EMEM: Hams F12 (1:1), insulin, 5 µg/ml; transferrin, 35 µg/ml; selenite, 5 ng/ml; antibiotics and buffer (as above). The oligomer of the present invention to be tested (.01-10 µM) is added 2 hours prior to addition of porcine platelet derived growth factor (Research and Diagonostics, Minneapolis, MN), or FBS,in fresh serum-free media. Twenty-four hours later the oligomers are again added preceding addition of growth factors by 2 hours. […]\nThe VSMC are pulsed (5 hours) with ^3H-thymidine (Amersham, Arlington Heights, IL) (1 µCi/well of a 96 well plate; 42 Ci/mmole) added 15-18 hours after the last dose of growth factor. DNA synthesis is determined in NaOH extraction of ethanol/ether fixed cells as reported by Nemecek, et al., PNAS 83, 674 (1986). The cells are washed with phosphate bufferred saline (200 µl/well of 96-well tray. The cells are incubated with trichloroacetic acid (TCA) (10%, 200 ul) for 5 minutes to remove cytoplasmic label. After a rapid wash with cold 10% TCA, cells are fixed with ethanol/ether (2:1, 200 µl/well 5 min) and dried. The labeled DNA is extracted with 0.5 N NaOH (200 µl/well 30 min incubation, room temperature). The extracted DNA is neutralized (0.5 N HCI) and counted by liquid scintillation.\nStatistical evaluation is as reported by Bilder, et al., Am. […] IC50 values are calculated by linear regression (RPL of RS1) from % inhibition of a minimum of 3 log fold dilutions of oligomers in the presence of PDGF (9 ng/ml) which give 70-80% of a maximal PDGF response. […] Percent inhibition is calculated by comparing the effect of PDGF alone (vehicle treated cultures + PDGF minus vehicle treated cultures without PDGF) to the effect of oligomers (oligomer + PDGF minus oligomer alone) and divided by the effect of PDGF times 100. i.e., = % inhibition = ((ΔVehicle + PDGF) - (Δoligomer + PDGF)/(Δvehicle + PDGF)) x 100."}}, "data": [{"smiles": "Cc1cc(O)c(Cc2cc(O)c(Cc3cc(O)c(Cc4cc(O)c(Cc5cc(O)c(Cc6cc(O)c(Cc7cc(O)c(Cc8cc(O)c(Cc9cc(O)c(Cc%10cc(O)c(Cc%11cc(O)c(Cc%12cc(O)c(Cc%13cc(O)c(Cc%14cc(O)c(Cc%15cc(O)c(Cc%16cc(O)ccc%16CCC(=O)O)cc%15CCC(=O)O)cc%14CCC(=O)O)cc%13CCC(=O)O)cc%12CCC(=O)O)cc%11CCC(=O)O)cc%10CCC(=O)O)cc9CCC(=O)O)cc8CCC(=O)O)cc7CCC(=O)O)cc6CCC(=O)O)cc5CCC(=O)O)cc4CCC(=O)O)cc3CCC(=O)O)cc2CCC(=O)O)cc1CCC(=O)O", "note": "[Ex 2, Step 26]", "values": [{"measurement": "Platelet Aggregation IC50", "setting": "[1]", "result": 250, "unit": "µg/mL"}, {"measurement": "APTT ICDCT", "setting": "normal pooled plasma", "result": 35, "unit": "µg/mL"}, {"measurement": "% Inhibition of Heparanase Activity (5µg/ml)", "setting": "[2]", "result": 68, "unit": "%"}, {"measurement": "IC50", "setting": "[3]", "result": 40, "unit": "nM"}]}]}
